The source of these data is PubChem BioAssay (NCI).

Assay in all cases: DTP human tumour cell line panel, 48 h
The test system of assay [1] is EKVX NSCLC.
The subject of assay [2] is HCC-2998 colon.
In assay [3] the test system is HOP-92 NSCLC.
The test system of assay [4] is IGROV1 ovarian.
In assay [5] the test system is K-562 leukemia.
Assay [6] has as its system MALME-3M melanoma.
Assay [7] concerns NCI-H23 lung.
Assay [8] has as its system OVCAR-5 ovarian.
For assay [9], the system named is RXF 393 renal.
Assay [10] has as its system SF-539 CNS.
In assay [11] the test system is SK-OV-3 ovarian.
The subject of assay [12] is U251 CNS.
In assay [13] the test system is MCF7 breast.

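Exposure lasted 48 hours, with cells grown in 96-well plates and compounds tested at five concentrations. TGI marks complete inhibition of growth.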

As for `C[n+]1c2ccccc2c(NC(CCC(N)=O)C(=O)O)c2ccccc21` (stereo unspecified), the concentration for total growth inhibition (TGI) in [1], in assay [2], in assay [3], in [4], in assay [5] and in assay [6] was greater than 100 µM each time. Also, the TGI in assay [7], in [8], in assay [9], in assay [10], in assay [11] and in assay [12] was greater than 100 µM each time.

On to `CC(C)NC(C)Cc1ccccc1` (stereo unspecified), for which the TGI in assay [1], in assay [2], in assay [3], in assay [4], in assay [5] and in [6] was greater than 100 µM throughout. For the same molecule, the TGI in assay [7], in assay [8], in assay [9], in assay [10], in assay [11] and in assay [12] was greater than 100 µM throughout.

Regarding `Cc1ccc(N2C(=O)/C(=c3\s/c(=C(/N)O)c(=N)n3-c3ccccc3)SC2=S)cc1`, the TGI in assay [2] is greater than 100 µM; in [3], 47.1 µM; in assay [4], greater than 100 µM; in [5], greater than 100 µM; in assay [7], greater than 100 µM; in [8] it was greater than 100 µM. In addition, the TGI in [10], in assay [11] and in [12] was greater than 100 µM each time.

Turning to `CCC12C=CCN3CC[C@]4(C(=C(C(=O)OC)[C@@H]1Nc1ccn(C5OC(COC(C)=O)C(OC(C)=O)C5OC(C)=O)c(=O)n1)Nc1ccccc14)C32` (stereo partly specified), the TGI in assay [1] is 14.3 µM; in [2], 7.73 µM; in [3] it was 8.02 µM; in assay [4], 9.68 µM; in [5] it was 17.1 µM; in assay [6], 9.74 µM. Moreover, the TGI in assay [7] came out at 3.43 µM; in [8], 3.6 µM; in assay [9] it was 6.45 µM; in assay [10] it was 9.17 µM; in [11] it was 9.45 µM; in [12], 7.69 µM.

Turning to `CCOc1ccc(N=Cc2cc(OC)c(OC)c(OC)c2)cc1`, the TGI in [1], in [3], in assay [4], in [5], in assay [6] and in assay [7] was greater than 100 µM in each case. The TGI in [8], in assay [9], in assay [10], in [11] and in assay [12] was greater than 100 µM in each case.

Regarding `CC1=NN(C(=O)c2ccc(Cl)cc2)C(=O)/C1=C/c1cccc(O)c1`, the TGI in assay [1], in assay [2], in assay [3], in [4], in assay [5] and in assay [6] was greater than 100 µM throughout. Further, the concentration for total growth inhibition (TGI) in assay [7], in [8], in [9], in assay [10], in assay [11] and in assay [12] was greater than 100 µM each time.

For `CCN(CC)CC(C)(C)C(=O)/C=C/c1ccc(C)cc1`, the TGI in assay [1] was 16.9 µM; in assay [2], 21.6 µM; in [3], 8.45 µM; in assay [5], greater than 100 µM; in assay [6], 21.7 µM; in assay [8] it was 27.6 µM. Besides, the TGI was determined as 21.6 µM in assay [9], 26.2 µM in [10], 60.6 µM in assay [11] and 28.6 µM in assay [12].

As for `OCCOCCO[P+]1(OCCOCCO)n2c3ccc2C(c2ccccc2)=C2C=CC(=N2)C(c2ccccc2)=c2ccc(n21)=C(c1ccccc1)C1=NC(=C3c2ccccc2)C=C1`, the TGI was 0.321 µM in [2]; greater than 100 µM in assay [3]; 0.706 µM in assay [6]; 1.55 µM in assay [13]; 0.629 µM in [7]; 1.95 µM in [8]. The values for the TGI in [11] and in assay [12] were 1.79 µM and greater than 100 µM, respectively.

For `COc1cccc(/C=N/n2c(-c3ccccc3)n[nH]c2=O)c1`, the TGI in assay [1] is greater than 100 µM; in assay [2], greater than 100 µM; in [5], greater than 100 µM; in assay [6] it was greater than 100 µM; in assay [13] it was greater than 100 µM; in assay [7] it was 90.5 µM. Moreover, the TGI in assay [8], in assay [10], in assay [11] and in assay [12] was greater than 100 µM throughout.

`C=CCSc1nn(CC=C)cc2ncnc1-2`: the TGI in [1], in [4], in assay [5], in assay [13], in assay [7] and in assay [8] was greater than 100 µM throughout. Moreover, the TGI in assay [9], in assay [10] and in [12] was greater than 100 µM throughout.

As for `COC(CNC(=O)C(C)NC(=O)C(C)NC(=O)c1ccccc1)OC` (stereo unspecified), the TGI in assay [1], in assay [3], in [4], in assay [5], in [6] and in assay [13] was greater than 100 µM in each case. Besides, the TGI in [7], in [8], in assay [9], in [10], in assay [11] and in [12] was greater than 100 µM throughout.

For the molecule `Cc1ccc2c(c1)NC(=O)C(N=[N+]=[N-])(c1ccccc1)C2=O` (stereo unspecified), the TGI was 95.3 µM in [1]; greater than 100 µM in assay [2]; 85.2 µM in assay [3]; greater than 100 µM in assay [4]; 56.6 µM in assay [5]; 71.6 µM in assay [6]. The TGI in assay [7] is 45.9 µM; in assay [8], greater than 100 µM; in assay [10] it was 81.5 µM; in [11], 84.3 µM; in assay [12], 74.6 µM.

`Cc1c2n(c3ccccc13)CC1C2N(C)OC1(C)C` (stereo unspecified): the TGI in assay [1], in assay [2], in assay [5], in [6], in [7] and in [8] was greater than 100 µM in each case. The TGI in assay [10] and in assay [11] was greater than 100 µM throughout.

The term TGI denotes the concentration at which net growth stops.
